Among the data in patent publication US12421235B2, “Bridged tricyclic carbamoylpyridone compounds and uses thereof” (Gilead Sciences, Inc., priority 2020, dated 2025) are EC50, CC50 and HLM stability values, retold here.

Each structure is given as a SMILES string.

Data set [1] has as its system HIV-1 (IIIB) in MT-4 cells. The data set is described as follows: HIV MT-4 antiviral assay. It counts as cell-based. To be noted: Human immunodeficiency virus 1, MT4, 120 h, 5 days, Cell Titer Glo. An outline of the steps: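 MT-4 cells infected with HIV-1 IIIB (1:250 dilution of concentrated stock) were incubated 5 days at 37 °C with compound in 1:3 serial dilutions in RPMI/10% FBS. Viability was read by CellTiter-Glo luminescence. EC50 was the concentration causing a 50% decrease in luminescence signal, from sigmoidal dose-response fits.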

A short description of data set [2]: Cytotoxicity assay in MT-4 cells. It counts as cell-based. The note with it: human, uninfected MT-4 cells, Cell Titer Glo. An outline of the steps:
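Uninfected MT-4 cells were incubated with 1:3 serially diluted compound in RPMI/10% FBS for 5 days at 37° C. Viability was read by CellTiter-Glo luminescence, with 10 μM puromycin as the baseline cytotoxicity control. Values are the concentration giving a 50% decrease in luminescence, from sigmoidal dose-response fits.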
(In ATP-based viability assays light output follows the ATP content of the culture.)

Data set [3] in a line: High throughput microsomal stability assay (human liver microsomes). It counts as in vitro ADME. To be noted: human liver microsomes, 1 uM compound, NADPH + UDPGA cofactors, 37 C. A digest of the protocol:
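Compounds at 1 uM final, incubated at 37° C. with liver microsomes (2 mg/ml stock, alamethicin-treated) in pH 7.4 phosphate plus NADPH-regenerating/UDPGA cofactors; samples taken 0–70 min. Parent/IS peak-area ratios read by RapidFire QToF MS; half-life from linear fit of initial log decay, scaled to intrinsic clearance.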
Background: Microsomes from liver hold many membrane-bound enzymes, among them those of drug oxidation.

Data set [4] has as its system pLai RLuc reporter virus in MT-4 cells. The data set is described as follows: HIV MT-4 serum shift antiviral reporter assay. It counts as cell-based. The note with it: Human immunodeficiency virus 1, MT4, 72 h, read-out: RLUC CCM. An outline of the steps: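 MT-4 cells pre-infected 2 h with reporter virus, then dosed (1:3 dilutions) in medium with 10% FBS alone or plus 50% human serum; 72 h at 37 °C. Renilla luminescence read; EC50 = 50% signal decrease by sigmoidal fit, serum shift = EC50(HS)/EC50(no HS).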
A general note: In a reporter assay the amount or activity of a reporter protein is the signal.

As a reminder, the CC50 is the concentration giving 50% cytotoxicity. Low values mean greater toxicity to the cells, high ones lower toxicity to the cells. With `[2H][C@]1(OC)C=C[C@H](C)N2C[C@H]1n1cc(C(=O)NCc3ccc(F)cc3F)c(=O)c(O)c1C2=O` [Example 21, (3S,6S,7R)—N-(2,4-difluorobenzyl)-12-hydroxy-6-methoxy-3-methyl-1,11-dioxo-1,6,7,11-tetrahydro-3H-2,7-methanopyrido[1,2-a][1,4]diazonine-6-d-10-carboxamide], the EC50 came out at 1.8 nM in data set [1] and 0.52 nM in data set [4]. Also, the CC50 at 5 days in data set [2] worked out at 19300 nM. For the same compound, the HLM stability in data set [3] is 6.17 mL/min/kg.
Turning to `CO[C@@]1(C)CC[C@H](C)N2C[C@H]1n1cc(C(=O)NCc3c(F)cc(F)cc3F)c(=O)c(O)c1C2=O` [Example 23, (3S,6S,7R)-12-hydroxy-6-methoxy-3,6-dimethyl-1,11-dioxo-N-(2,4,6-trifluorobenzyl)-1,4,5,6,7,11-hexahydro-3H-2,7-methanopyrido[1,2-a][1,4]diazonine-10-carboxamide], the EC50 in data set [1] is 2.2 nM; in data set [4], 0.47 nM. The compound also gave a CC50 at 5 days in data set [2] of 9790 nM. In addition, the HLM stability in data set [3] was 12 mL/min/kg.
In the case of `CCO[C@H]1C=C[C@H](C)N2C[C@H]1n1cc(C(=O)NCc3c(F)cc(F)cc3F)c(=O)c(O)c1C2=O` [Example 25, (3S,6S,7R)-6-ethoxy-12-hydroxy-3-methyl-1,11-dioxo-N-(2,4,6-trifluorobenzyl)-1,6,7,11-tetrahydro-3H-2,7-methanopyrido[1,2-a][1,4]diazonine-10-carboxamide], the EC50 is 4.1 nM in data set [1] and 0.82 nM in data set [4]. This compound registered a 50% cytotoxic concentration (CC50) at 5 days in data set [2] of 43700 nM. Besides, in data set [3], the HLM stability was 9.67 mL/min/kg.
`CCO[C@H]1CC[C@H](C)N2C[C@H]1n1cc(C(=O)NCc3c(F)cc(F)cc3F)c(=O)c(O)c1C2=O` [Example 26, (3S,6S,7R)-6-ethoxy-12-hydroxy-3-methyl-1,11-dioxo-N-(2,4,6-trifluorobenzyl)-1,4,5,6,7,11-hexahydro-3H-2,7-methanopyrido[1,2-a][1,4]diazonine-10-carboxamide]: the EC50 is 4.4 nM in data set [1] and 0.92 nM in data set [4]. Further, in data set [2], the CC50 at 5 days is 44300 nM. Further, the HLM stability in data set [3] amounted to 3.67 mL/min/kg.
In the case of `C[C@H]1CC[C@H](OC(F)F)[C@H]2CN1C(=O)c1c(O)c(=O)c(C(=O)NCc3c(F)cc(F)cc3F)cn12` [Example 27, (3S,6S,7R)-6-(difluoromethoxy)-12-hydroxy-3-methyl-1,11-dioxo-N-(2,4,6-trifluorobenzyl)-1,4,5,6,7,11-hexahydro-3H-2,7-methanopyrido[1,2-a][1,4]diazonine-10-carboxamide], the EC50 in data set [1] is 1.1 nM; in data set [4], 0.35 nM. Further, the CC50 at 5 days in data set [2] is 13600 nM. The HLM stability in data set [3] is 14.7 mL/min/kg.
Regarding `CC[C@]1(O)CC[C@H](C)N2C[C@H]1n1cc(C(=O)NCc3c(F)cc(F)cc3F)c(=O)c(O)c1C2=O` [Example 28, (3S,6S,7R)-6-ethyl-6,12-dihydroxy-3-methyl-1,11-dioxo-N-(2,4,6-trifluorobenzyl)-1,4,5,6,7,11-hexahydro-3H-2,7-methanopyrido[1,2-a][1,4]diazonine-10-carboxamide], the EC50 in data set [1] amounted to 4.1 nM; in data set [4], 0.96 nM. For the same compound, it took 24400 nM to reach half-maximal cytotoxicity in data set [2] (CC50 at 5 days). Also, in data set [3], the HLM stability came out at 5.67 mL/min/kg.
With `[2H]C([2H])([2H])[C@]1(O)C=C[C@H](C)N2C[C@H]1n1cc(C(=O)NCc3c(F)cc(F)cc3F)c(=O)c(O)c1C2=O` [Example 29, (1R,10S,13S)-6,13-dihydroxy-10-methyl-5,8-dioxo-13-(trideuteriomethyl)-N-[(2,4,6-trifluorophenyl)methyl]-2,9-diazatricyclo[7.4.1.02,7]tetradeca-3,6,11-triene-4-carboxamide], the EC50 turned out to be 2 nM in data set [1] and 0.74 nM in data set [4]. Moreover, the midpoint of cytotoxicity in data set [2], the CC50 at 5 days, lay at 13000 nM. For the same compound, the HLM stability in data set [3] was 1.83 mL/min/kg.
As for `[2H]C([2H])([2H])[C@]1(O)CC[C@H](C)N2C[C@H]1n1cc(C(=O)NCc3ccc(F)cc3F)c(=O)c(O)c1C2=O` [Example 31, (1R,10S,13S)—N-[(2,4-difluorophenyl)methyl]-6,13-dihydroxy-10-methyl-5,8-dioxo-13-(trideuteriomethyl)-2,9-diazatricyclo[7.4.1.02,7]tetradeca-3,6-diene-4-carboxamide], the EC50 in data set [1] turned out to be 2.1 nM; in data set [4] it was 0.36 nM. Besides, the midpoint of cytotoxicity in data set [2], the CC50 at 5 days, lay at 8230 nM. For the same compound, in data set [3], the HLM stability was determined as 3 mL/min/kg.
The matching figures for `C[C@H]1CC[C@@](C)(O)[C@H]2CN1C(=O)c1c(O)c(=O)c(C(=O)NCc3ccc(F)cc3F)cn12` [Example 33, (1R,10S,13R)—N-[(2,4-difluorophenyl)methyl]-6,13-dihydroxy-10,13-dimethyl-5,8-dioxo-2,9-diazatricyclo[7.4.1.02,7]tetradeca-3,6-diene-4-carboxamide]: 2.1 nM, 0.36 nM, 22800 nM and 5.83 mL/min/kg.
Taken in the same sequence, the figures for `[2H]C([2H])([2H])O[C@H]1CC[C@H](C)N2C[C@H]1n1cc(C(=O)NCc3ccc(F)cc3F)c(=O)c(O)c1C2=O` [Example 34, (3S,6S,7R)—N-(2,4-difluorobenzyl)-12-hydroxy-6-(methoxy-d3)-3-methyl-1,11-dioxo-1,4,5,6,7,11-hexahydro-3H-2,7-methanopyrido[1,2-a][1,4]diazonine-10-carboxamide] were 0.9 nM, 0.42 nM, 15100 nM and 4.17 mL/min/kg.
For the compound `CO[C@@H]1C[C@H](F)[C@H](C)N2C[C@H]1n1cc(C(=O)NCc3c(F)cc(F)cc3F)c(=O)c(O)c1C2=O` [Example 37, (3S,4S,6R,7R)-4-fluoro-12-hydroxy-6-methoxy-3-methyl-1,11-dioxo-N-(2,4,6-trifluorobenzyl)-1,4,5,6,7,11-hexahydro-3H-2,7-methanopyrido[1,2-a][1,4]diazonine-10-carboxamide], the figures for the EC50 in data set [1] and in data set [4] were 1.4 nM and 0.65 nM, respectively. The midpoint of cytotoxicity in data set [2], the CC50 at 5 days, lay at 14800 nM. In addition, in data set [3], the HLM stability came out at 2.83 mL/min/kg.
For the compound `CO[C@H]1C[C@@H](F)[C@H](C)N2C[C@H]1n1cc(C(=O)NCc3c(F)cc(F)cc3F)c(=O)c(O)c1C2=O` [Example 39, (3S,4R,6S,7R)-4-fluoro-12-hydroxy-6-methoxy-3-methyl-1,11-dioxo-N-(2,4,6-trifluorobenzyl)-1,4,5,6,7,11-hexahydro-3H-2,7-methanopyrido[1,2-a][1,4]diazonine-10-carboxamide], the EC50 in data set [1] and in data set [4] was 1.5 nM in each case. In data set [2], this compound came in with a CC50 at 5 days of 11700 nM. Besides, the HLM stability in data set [3] turned out to be 4.67 mL/min/kg.
On to `CO[C@H]1C[C@H](F)[C@H](C)N2C[C@H]1n1cc(C(=O)NCc3c(F)cc(F)cc3F)c(=O)c(O)c1C2=O` [Example 40, (3S,4S,6S,7R)-4-fluoro-12-hydroxy-6-methoxy-3-methyl-1,11-dioxo-N-(2,4,6-trifluorobenzyl)-1,4,5,6,7,11-hexahydro-3H-2,7-methanopyrido[1,2-a][1,4]diazonine-10-carboxamide], for which the figures for the EC50 in data set [1] and in data set [4] were 1.1 nM and 2.87 nM, respectively. Also, half-maximal cytotoxicity in data set [2] (CC50 at 5 days) was put at 19600 nM. In addition, the HLM stability in data set [3] is 4.67 mL/min/kg.
For the compound `CO[C@H]1CC[C@H](CF)N2C[C@H]1n1cc(C(=O)NCc3ccc(F)cc3F)c(=O)c(O)c1C2=O` [Example 41, (3R,6S,7R)—N-(2,4-difluorobenzyl)-3-(fluoromethyl)-12-hydroxy-6-methoxy-1,11-dioxo-1,4,5,6,7,11-hexahydro-3H-2,7-methanopyrido[1,2-a][1,4]diazonine-10-carboxamide], the EC50 came out at 1.7 nM in data set [1] and 0.56 nM in data set [4]. Further, in data set [2], it took 19400 nM to reach half-maximal cytotoxicity (CC50 at 5 days). Also, in data set [3], the HLM stability is 1.83 mL/min/kg.
For the compound `CO[C@H]1CC[C@@H](C)N2C[C@H]1n1cc(C(=O)NCc3ccc(F)cc3F)c(=O)c(O)c1C2=O` [Example 42, (3R,6S,7R)—N-(2,4-difluorobenzyl)-12-hydroxy-6-methoxy-3-methyl-1,11-dioxo-1,4,5,6,7,11-hexahydro-3H-2,7-methanopyrido[1,2-a][1,4]diazonine-10-carboxamide], the EC50 in data set [1] turned out to be 1.9 nM; in data set [4], 0.61 nM. Further, in data set [2], the midpoint of cytotoxicity, the CC50 at 5 days, lay at 50000 nM. The HLM stability in data set [3] was 9.67 mL/min/kg.
Taken in the same sequence, the figures for `C[C@H]1CC[C@H](O)[C@@]2(C)CN1C(=O)c1c(O)c(=O)c(C(=O)NCc3ccc(F)cc3F)cn12` [Example 43, (3S,6S,7R)—N-(2,4-difluorobenzyl)-6,12-dihydroxy-3,7-dimethyl-1,11-dioxo-1,4,5,6,7,11-hexahydro-3H-2,7-methanopyrido[1,2-a][1,4]diazonine-10-carboxamide] were 1.3 nM, 0.71 nM, 23600 nM and 4.83 mL/min/kg.
